Measured values published in patent US9376420B2 (YUHAN CORPORATION, priority 2012, dated 2016).

Target: T1, human LXRβ (Homo sapiens, UniProt P55055)
T1 construct: expressed in transfected cells; host or cells: HEK293 cells (ATCC CRL-1573), transient transfection with pFA-hLXRβ/GAL4 and pUAS
T1 sequence (P55055 222-460 limits assumed): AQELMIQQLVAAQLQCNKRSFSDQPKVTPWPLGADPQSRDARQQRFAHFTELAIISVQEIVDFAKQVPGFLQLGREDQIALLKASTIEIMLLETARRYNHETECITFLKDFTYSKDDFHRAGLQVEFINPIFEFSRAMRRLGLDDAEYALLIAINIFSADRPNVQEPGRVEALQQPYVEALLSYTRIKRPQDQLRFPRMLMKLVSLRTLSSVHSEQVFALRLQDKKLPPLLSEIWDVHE
Assay: Assay for Transcriptional Activity of LXRβ (GAL4-hLXRβ LBD luciferase reporter, transient transfection)
Assay type: cell-based
Details: HEK293 cells transfected with pFA-hLXRβ/GAL4 and pUAS, 24 hours; for Emax: fold value in comparison with the control (DMSO-treated group); for EC50: increase of transcriptional activity of LXRβ, average of three independent tests
How it was run: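 HEK293 cells transiently co-transfected with GAL4-hLXRβ LBD and 5×GAL4-UAS luciferase reporter, treated 24 h at 37 °C with compounds over 9 points (0.01–50 μM, half-log). Luminescence read after lysis; EC50 from four-parameter fit, mean of three independent tests, with a known LXR agonist as positive control.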

SMILES | Emax [fold] | EC50 [nM]
O=S(=O)(C1CC1)N1CCN(c2cccc(C3CC(C(F)(F)C(F)(F)F)=NN3c3ccc(F)cc3F)c2)CC1 (stereo not shown) [Example 97, 5-[3-(4-cyclopropanesulfonyl-piperazin-1-yl)-phenyl]-1-(2,4-difluoro-phenyl)-3-pentafluoroethyl-4,5-dihydro-1H-pyrazole] | 69 | 3090
CC(C)(C)OC(=O)N1CC=C(c2cccc(C3CC(C(F)(F)C(F)(F)F)=NN3c3ccc(F)cc3F)c2)CC1 (stereo not shown) [Example 60, 5-[3-(1-BOC-1,2,3,6-tetrahydropyridin-4-yl)-phenyl]-1-(2,4-difluoro-phenyl)-3-pentafluoroethyl-4,5-dihydro-1H-pyrazole] | 11 | 20100
CS(=O)(=O)c1ccc(-c2cccc(C3CC(C(F)(F)C(F)(F)F)=NN3c3ccc(F)cc3F)c2)cc1C#N (stereo not shown) [Example 70, 5-[3′-cyano-4′-(methanesulfonyl)-biphenyl-3-yl]-1-(2,4-difluoro-phenyl)-3-pentafluoroethyl-4,5-dihydro-1H-pyrazole] | 62 | 466
OC(C1=NN(c2ccccc2Cl)C(c2ccc(-c3ccc(F)cc3)cc2)C1)(C(F)(F)F)C(F)(F)F (stereo not shown) [Example 246, 1-(2-chloro-phenyl)-5-(4′-fluoro-biphenyl-4-yl)-3-[di-(trifluoromethyl)-hydroxy-methyl]-4,5-dihydro-1H-pyrazole] | 47 | 1410
COc1cc(C)c(-c2ccc(C3CC(C(O)(C(F)(F)F)C(F)(F)F)=NN3c3ccc(F)cc3F)cc2)cn1 (stereo not shown) [Example 383, 1-(2,4-difluoro-phenyl)-5-[4-(6-methoxy-4-methyl-pyridin-3-yl)-phenyl]-3-[di-(trifluoromethyl)-hydroxy-methyl]-4,5-dihydro-1H-pyrazole] | 49 | 368
C[S+]([O-])c1ccc(-c2cccc(C3CC(C(F)(F)C(F)(F)F)=NN3c3ccc(Cl)cc3Cl)c2)cc1 (stereo not shown) [Example 42, 1-(2,4-dichloro-phenyl)-5-(4′-methanesulfinyl-biphenyl-3-yl)-3-pentafluoroethyl-4,5-dihydro-1H-pyrazole] | 103 | 593
CS(=O)(=O)N1CC=C(c2cc(C3CC(C(F)(F)C(F)(F)F)=NN3c3ccc(F)cc3F)ccn2)CC1 (stereo not shown) [Example 191, 1-(2,4-difluoro-phenyl)-5-[2-(1-methanesulfonyl-1,2,3,6-tetrahydropyridin-4-yl)-pyridin-4-yl]-3-pentafluoroethyl-4,5-dihydro-1H-pyrazole] | 50 | 6700
CSc1cccc(-c2cccc(N3N=C(C(O)(C(F)(F)F)C(F)(F)F)CC3c3ccccc3Cl)c2)c1 (stereo not shown) [Example 431, 5-(2-chloro-phenyl)-1-[3′-(methylsulfanyl)-biphenyl-3-yl]-3-[di-(trifluoromethyl)-hydroxy-methyl]-4,5-dihydro-1H-pyrazole] | 17 | 2240
CS(=O)(=O)N1CC=C(c2ccc(C3CC(C(O)(C(F)(F)F)C(F)(F)F)=NN3c3ccccc3Cl)s2)CC1 (stereo not shown) [Example 418, 1-(2-chloro-phenyl)-5-[5-(1-methanesulfonyl-1,2,3,6-tetra hydropyridin-4-yl)-thiophen-2-yl]-3-[di-(trifluoromethyl)-hydroxy-methyl]-4,5-dihydro-1H-pyrazole] | 106 | 373

More lines, now with the values ahead:

Emax [fold] | EC50 [nM] | SMILES
50 | 1210 | COc1ccc(-c2ccc(C3CC(C(O)(C(F)(F)F)C(F)(F)F)=NN3c3ccccc3Cl)cc2F)cc1 (stereo not shown) [Example 363, 1-(2-chloro-phenyl)-5-(2-fluoro-4′-methoxy-biphenyl-4-yl)-3-[di-(trifluoromethyl)-hydroxy-methyl]-4,5-dihydro-1H-pyrazole]
54 | 699 | OC(C1=NN(c2ccccc2Cl)C(c2ccc(-c3cccnc3F)cc2)C1)(C(F)(F)F)C(F)(F)F (stereo not shown) [Example 261, 1-(2-chloro-phenyl)-5-[4-(2-fluoro-pyridin-3-yl)-phenyl]-3-[di-(trifluoromethyl)-hydroxy-methyl]-4,5-dihydro-1H-pyrazole]
87 | 850 | CSc1cccc(-c2ccc(C3CC(C(O)(C(F)(F)F)C(F)(F)F)=NN3c3ccccc3Cl)c(F)c2)c1 (stereo not shown) [Example 338, 1-(2-chloro-phenyl)-5-(3-fluoro-3′-methylsulfanyl-biphenyl-4-yl)-3-[di-(trifluoromethyl)-hydroxy-methyl]-4,5-dihydro-1H-pyrazole]
30 | 744 | CCOC(=O)c1cncc(-c2ccc(C3CC(C(O)(C(F)(F)F)C(F)(F)F)=NN3c3ccc(F)cc3F)cc2)c1 (stereo not shown) [Example 378]
88 | 304 | CS(=O)(=O)N1CC=C(c2ccc(C3CC(C(O)(C(F)(F)F)C(F)(F)F)=NN3c3ccccc3Cl)cc2)CC1 (stereo not shown) [Example 298, 1-(2-chloro-phenyl)-5-[4-(1-methanesulfonyl-1,2,3,6-tetrahydropyridin-4-yl)-phenyl]-3-[di-(trifluoromethyl)-hydroxy-methyl]-4,5-dihydro-1H-pyrazole]
80 | 1070 | CCOc1cccc(-c2ccc(C3CC(C(O)(C(F)(F)F)C(F)(F)F)=NN3c3ccc(F)cc3F)cc2)c1 (stereo not shown) [Example 337, 5-(3′-ethoxy-biphenyl-4-yl)-1-(2,4-difluoro-phenyl)-3-[di-(trifluoromethyl)-hydroxy-methyl]-4,5-dihydro-1H-pyrazole]
84 | 189 | CS(=O)(=O)c1cc(-c2cccc(C3CC(C(F)(F)C(F)(F)F)=NN3c3ccc(F)cc3F)c2)cc(F)c1CO (stereo not shown) [Example 76, 1-(2,4-difluoro-phenyl)-5-[3′-fluoro-4′-(hydroxymethyl)-5′-(methylsulfonyl)-biphenyl-3-yl]-3-pentafluoroethyl-4,5-dihydro-1H-pyrazole]
25 | 2500 | N#Cc1ccc(-c2cccc(C3CC(C(F)(F)C(F)(F)F)=NN3c3ccc(F)cc3F)c2)cn1 (stereo not shown) [Example 78, 5-[3-(2-cyano-pyridin-5-yl)-phenyl]-1-(2,4-difluoro-phenyl)-3-pentafluoroethyl-4,5-dihydro-1H-pyrazole]
53 | 989 | OC(C1=NN(c2ccccc2Cl)C(c2ccc(-c3ccc(F)cc3)cc2F)C1)(C(F)(F)F)C(F)(F)F (stereo not shown) [Example 344, 1-(2-chloro-phenyl)-5-(3,4′-difluoro-biphenyl-4-yl)-3-[di-(trifluoromethyl)-hydroxy-methyl]-4,5-dihydro-1H-pyrazole]
87 | 1240 | Cc1cccc(-c2ccc(C3CC(C(O)(C(F)(F)F)C(F)(F)F)=NN3c3ccccc3Cl)cc2)n1 (stereo not shown) [Example 276, 1-(2-chloro-phenyl)-5-[4-(6-methyl-pyridin-2-yl)-phenyl]-3-[di-(trifluoromethyl)-hydroxy-methyl]-4,5-dihydro-1H-pyrazole]
81 | 119 | O=C(c1ccc(Cl)cc1)N1CC=C(c2cccc(C3CC(C(O)(C(F)(F)F)C(F)(F)F)=NN3c3ccccc3Cl)c2)CC1 (stereo not shown) [Example 237, 5-{3-[1-(4-chloro-benzoyl)-1,2,3,6-tetrahydropyridin-4-yl]-phenyl}-1-(2-chloro-phenyl)-3-[di-(trifluoromethyl)-hydroxy-methyl]-4,5-dihydro-1H-pyrazole]
